Source: patent publication US8299114B2, “Bicyclic derivatives of azabicyclic carboxamides, preparation thereof and therapeutic use thereof” (priority 2008, dated 2012)

How the values were obtained:
[1] = biological target: T1, TRPV1 receptor (Rattus norvegicus, UniProt O35433); assay: Inhibition of the current induced with capsaicin on rat DRGs (whole-cell patch-clamp); format: cell-based; details: inhibition of control capsaicin response, newborn rat DRG neurones
T1 construct: DRG neurones naturally express the TRPV1 receptor; endogenous in cells; host or cells: primary culture of newborn rat dorsal root ganglion neurones
T1 sequence (O35433 whole entry): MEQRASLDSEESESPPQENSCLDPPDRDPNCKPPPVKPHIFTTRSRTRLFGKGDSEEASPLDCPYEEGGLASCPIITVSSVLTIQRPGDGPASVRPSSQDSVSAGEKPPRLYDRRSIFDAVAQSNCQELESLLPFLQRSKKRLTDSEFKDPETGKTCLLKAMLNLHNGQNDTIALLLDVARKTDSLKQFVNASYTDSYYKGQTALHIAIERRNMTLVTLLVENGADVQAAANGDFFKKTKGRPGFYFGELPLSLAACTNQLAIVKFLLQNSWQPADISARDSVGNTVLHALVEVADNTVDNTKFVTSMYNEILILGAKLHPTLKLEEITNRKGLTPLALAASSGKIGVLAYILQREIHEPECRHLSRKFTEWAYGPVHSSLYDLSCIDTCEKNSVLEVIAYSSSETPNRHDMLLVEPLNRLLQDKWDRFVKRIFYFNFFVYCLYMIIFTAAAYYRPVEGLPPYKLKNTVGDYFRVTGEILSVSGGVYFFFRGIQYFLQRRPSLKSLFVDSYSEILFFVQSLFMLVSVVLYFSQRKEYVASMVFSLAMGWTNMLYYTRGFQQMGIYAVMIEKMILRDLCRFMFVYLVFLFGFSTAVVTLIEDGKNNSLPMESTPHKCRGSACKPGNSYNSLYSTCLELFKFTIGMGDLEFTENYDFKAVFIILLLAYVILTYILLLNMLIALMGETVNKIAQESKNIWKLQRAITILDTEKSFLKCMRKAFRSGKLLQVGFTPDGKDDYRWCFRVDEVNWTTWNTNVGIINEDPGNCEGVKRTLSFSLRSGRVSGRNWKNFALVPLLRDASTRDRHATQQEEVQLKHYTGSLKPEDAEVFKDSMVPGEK
Description: Test of Inhibition of the Current Induced with Capsaicin on Rat DRGs
• Primary culture of rat dorsal root ganglion (DRG) cells:
DRG neurones naturally express the TRPV1 receptor.
The primary cultures of newborn rat DRGs are prepared using 1-day-old rats. Briefly, after dissection, the ganglions are trypsinized and the cells dissociated by mechanical trituration. The cells are resuspended in an Eagle basal culture medium containing 10% foetal calf serum, 25 mM KCl, 2 mM glutamine, 100 μg/ml gentamicin and 50 ng/ml of NGF, and then deposited on glass slides coated with laminin (0.25×10^6 cells per slide), which are then placed in Corning 12-well dishes. The cells are incubated at 37° C. in a humidified atmosphere containing 5% CO2 and 95% air. […]
The measuring chambers (volume 800 μl) containing the cell preparation are placed on the platform of an inverted microscope (Olympus IMT2) equipped with Hoffman optics (Modulation Contrast, New York) and observed at a magnification of 400×. […] The overall currents (membrane potential set at −60 mV) are recorded with an Axopatch 1D amplifier (Axon Instruments, Foster City, Calif.), connected to a PC running the Pclamp8 software (Axon Instrument). The current plots are recorded on paper and simultaneously digitized (sampling frequency 15 to 25 Hz) and acquired on the hard drive of the PC. […]

[2] = biological target: T2, TRPV1 receptors (Mus musculus, UniProt Q704Y3); assay: Pain induced by intraplantar administration of capsaicin to mice; format: in vivo; details: 10 mg/kg orally 120 minutes before intraplantar capsaicin, n=10, timed over 2 minutes
T2 construct: from tissue; host or cells: live mice, hind leg (in vivo)
T2 sequence (Q704Y3 whole entry): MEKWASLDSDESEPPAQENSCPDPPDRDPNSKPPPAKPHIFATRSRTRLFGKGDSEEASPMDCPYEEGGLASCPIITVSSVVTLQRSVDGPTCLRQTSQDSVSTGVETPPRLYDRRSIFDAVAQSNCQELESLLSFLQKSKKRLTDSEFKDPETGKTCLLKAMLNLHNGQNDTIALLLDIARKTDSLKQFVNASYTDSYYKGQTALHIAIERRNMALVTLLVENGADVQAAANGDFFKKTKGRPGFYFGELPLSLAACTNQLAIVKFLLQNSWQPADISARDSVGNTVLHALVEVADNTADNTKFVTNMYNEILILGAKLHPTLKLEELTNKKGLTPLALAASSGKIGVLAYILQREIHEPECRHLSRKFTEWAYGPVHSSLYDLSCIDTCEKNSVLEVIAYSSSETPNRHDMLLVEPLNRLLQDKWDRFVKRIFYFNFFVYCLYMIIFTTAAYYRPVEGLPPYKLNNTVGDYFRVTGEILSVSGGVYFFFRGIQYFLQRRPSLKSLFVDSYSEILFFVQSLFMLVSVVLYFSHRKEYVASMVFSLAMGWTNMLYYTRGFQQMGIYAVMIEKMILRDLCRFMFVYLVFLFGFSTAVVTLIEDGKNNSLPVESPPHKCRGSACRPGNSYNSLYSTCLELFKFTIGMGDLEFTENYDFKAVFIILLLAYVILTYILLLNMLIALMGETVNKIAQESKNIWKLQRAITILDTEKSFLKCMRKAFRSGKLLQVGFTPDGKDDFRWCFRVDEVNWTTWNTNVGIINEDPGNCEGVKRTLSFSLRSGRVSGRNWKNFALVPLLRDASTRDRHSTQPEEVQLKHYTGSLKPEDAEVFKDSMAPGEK
Description: Pain Induced by Intraplantar Administration of Capsaicin to Mice. The intraplantar injection of capsaicin to mice rapidly produces short-lived nociceptive behaviour, which is reflected by licking, biting and flexing of the administered leg. […] Methodology: (E)-Capsaicin is initially diluted to 3 mg/ml in DMSO, and then diluted again for its final use to 1.5 μg/20 μl in physiological saline. […] The capsaicin is injected into the hind legs of the animal, on the upper face. The test compounds are administered orally 120 minutes before the injection of capsaicin. Two hours after administration of the compounds, the mice are placed in a glass beaker. The nociceptive behaviour of the animals is then assessed immediately by the experimenter, and the duration of the capsaicin-induced behavioural manifestations is timed over a period of 2 minutes (licking and biting, total or partial flexure of the injected leg). For each compound, an inhibition corresponding to the mean of the capsaicin-induced nociceptive responses, in response to a dose of test product (expressed in mg/kg) administered orally to a sample of a given number (n) of mice, is determined.

SMILES | inhibition at 0.1 µM ([1]; 100 nM compound) [%] | melting point [°C] | % inhibition of the capsaicin-induced nociceptive responses [2] | inhibition at 0.0001 µM ([1]; 0.1 nM compound) [%]
Cc1nc2cc(NC(=O)c3cc4cc(F)ccc4n3Cc3cccc(F)c3)cnc2[nH]1 [Compound 11, N-(2-Methyl-3H-imidazo[4,5-b]pyrid-6-yl)-5-fluoro-1-[(3-fluorophenyl)methyl]-1H-indole-2-carboxamide] | 62 | 299 to 300 | – | –
O=C(Nc1cnc2sc(CO)nc2c1)c1cc2cc(F)ccc2n1Cc1cccc(F)c1 [Compound 4, N-(2-Hydroxymethylthiazolo[5,4-b]pyrid-6-yl)-5-fluoro-1-[(3-fluorophenyl)methyl]-1H-indole-2-carboxamide] | – | – | 37% (±8%) | 65.5
